# Patent US7470658B2, “Methods for inhibiting tumor metastasis, and peptides useful therefor” (Burnham Institute for Medical Research, priority 1999, dated 2008)
# Legend:
# E-selectin:IgG = conditions: comparison value for the heptapeptides; read-out: IC50 by ELISA binding assay using biotinylated sLe^a-PAA and E-selectin:IgG; cited from earlier work
# [1] = tested on: human melanoma MeWo cells; assay: In vivo lung metastasis of human melanoma MeWo cells transfected with fucosyltransferase-III; conditions: peptide 500 mg/100 ml/mouse i.v. 20 minutes before cells; after 3 weeks (FIG. 2C)
# Procedure: (§1) The effect of IELLQAR (SEQ ID NO:7) phage and peptides on E-selectin mediated tumor metastasis was examined using mouse B16 melanoma cells or human melanoma MeWo cells transfected with fucosyltransferase-III, an enzyme which synthesizes sLe^x, as described in Kukowska-Latallo et al., Genes & Develop., 4:1288-1303 (1990). […] To test whether the heptapeptide sequence IELLQAR (SEQ ID NO:7) could inhibit metastasis in vivo, mice were injected with IELLQAR (SEQ ID NO:7) phage and with B16 cells through a tail vein and assayed for the presence of metastatic foci.
# (§2) Phage (1×10^8 transducing units/100 ml/mouse) or peptide (500 mg/100 ml/mouse), each of which was equivalent to an amount 100 times the concentration required to inhibit binding between HL-60 to E-selectin determined by the in vitro assay described above in Example II (FIG. 1F), were injected intravenously into female mice (C57 black) that were 5-6 weeks old. The control phage lacks a consensus heptapeptide. The control peptide used in these experiments is MAPS alanine. After 20 minutes, metastatic tumor cells (2×10^5 cells) were administered through a tail vein. After 3 weeks, the numbers of metastatic foci appearing in the lung were counted.
# [2] = tested on: human lung carcinoma HAL-8 cells; assay: In vivo lung metastasis of human lung carcinoma HAL-8 cells; parameters: species or system mouse; conditions: peptide pre-treatment i.v.
# Procedure: as §2
# The effect of IELLQAR (SEQ ID NO:7) peptide was assayed in the same manner described above.
# mouse B16 melanoma cells = assay: In vivo lung metastasis of B16 melanoma cells transfected with fucosyltransferase-III; conditions: peptide 500 mg/100 ml/mouse i.v. 20 minutes before 2×10^5 cells; foci counted after 3 weeks (FIG. 2B)
# Procedure: as §1, §2
# E-selectin = assay: Inhibition of binding between sLe^x-PAA-biotin and E-selectin:IgG by phage or peptides (ELISA); conditions: synthetic peptides (FIG. 1E); read-out: half inhibition value (IC50) of binding between sLe^x and E-selectin
# E-selectin, sequence (P16581 22-175 limits assumed): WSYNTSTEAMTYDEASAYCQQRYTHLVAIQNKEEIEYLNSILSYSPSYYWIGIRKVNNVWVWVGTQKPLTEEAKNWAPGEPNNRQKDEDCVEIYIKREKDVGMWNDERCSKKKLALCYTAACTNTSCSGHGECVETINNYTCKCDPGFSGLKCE
# Procedure: The inhibition of binding between sLe^x and E-selectin:IgG by phage or peptides was assayed by adding five hundred ng of polymeric sLe^x (sLe^x-PAA-biotin, GlycoTech, Rocksville, Md.) to wells in the presence or absence of phage or peptide. After incubating at room temperature for 1 hour, wells were washed with TBS containing CaCl2, and sLe^x-PAA-biotin bound to each selectin was determined using the peroxidase conjugated avidin and peroxidase substrate ABTS (Pierce, Rockford, Ill.). The OD405 was read in an ELISA reader. The synthetic peptides used were linear IELLQAR (SEQ ID NO:7), cyclic CIELLQARC (SEQ ID NO:13) (cysteins linked by disulfide bonds are underlined), and IELLQAR (SEQ ID NO:7) multivalent (Fmoc eight branch), which was synthesized by AnaSpec, Inc. (San Jose, Calif.).
# [3] = tested on: B16 melanoma cells in the lung; assay: Immunohistochemistry of B16 melanoma cells in the lung (anti-melanoma HMB45); format: in vivo, mouse; conditions: pre-treated mice, one hour after administration of B16 cells
# Procedure: Next, the immunohistochemistry in the mouse lung of melanoma cells injected intravenously was assayed. Mice were injected intravenously with either control phage, IELLQAR (SEQ ID NO:7) phage, control peptide, or IELLQAR (SEQ ID NO:7) peptide, followed by injection with B16 melanoma cells. One hour after administering B16 melanoma cells, the lungs were fixed in 4% paraformaldehyde and paraffin sections were prepared. The melanoma cells in the lung were visualized by immunostaining using anti-melanoma HMB45 mouse monoclonal IgG1 antibody (DAKO, Carpinteria, Calif.) by the peroxidase method (Vectastatin ABC kit, Vector, Burlingame, Calif.).
# [4] = tested on: vascular endothelial cells of the lung; assay: Mouse lung histochemical analysis after intravenous injection of biotinylated peptide; format: in vivo; conditions: i.v. injection, one hour, peroxidase conjugated avidin
# Excerpt: Control peptide corresponding to MAPS alanine and IELLQAR (SEQ ID NO:7) peptide were biotinylated with biotin succinamide (Sigma, St. Louis, Mo.) and injected intravenously into mice. One hour after injection, mice were sacrificed, and tissues were examined histochemically using peroxidase conjugated avidin (Cappel, West Chester, Pa.) by the peroxidase method (Vectastatin ABC kit, Vector, Burlingame, Calif.).
compound,measurement,setting,value
"CC(=O)N[C@H]1[C@H](O[C@H]2[C@@H](O)[C@@H](CO)OC(O)[C@@H]2O)O[C@H](CO)[C@@H](O[C@@H]2O[C@H](CO)[C@H](O)[C@H](O[C@]3(C(=O)O)C[C@H](O)[C@@H](NC(C)=O)[C@H]([C@H](O)[C@H](O)CO)O3)[C@H]2O)[C@@H]1O[C@@H]1O[C@@H](C)[C@@H](O)[C@@H](O)[C@@H]1O (some centres unmarked) [sLe^x oligosaccharide, NeuNAcα2→3Galβ1→4(Fucα1→3)GlcNAcβ1→3Gal]",IC50,E-selectin:IgG,550 µM
"IELLQAR (SEQ ID NO:7) multivalent (Fmoc eight branch) [multivalent IELLQAR peptide, IELLQAR multivalent peptide, Fmoc eight branch MAPS, synthesized by AnaSpec]",metastases of human melanoma MeWo cells to the lung,[1],inhibited efficiently
same,metastases of human lung carcinoma HAL-8 cells to the lung,[2],inhibited efficiently
same,"metastasis of B16 melanoma to the lung, peptide pre-treatment",mouse B16 melanoma cells,effective in preventing metastasis
same,IC50,E-selectin,10 µM
"IELLQAR [IELLQAR peptide, synthetic IELLQAR peptide injected into mice]",state of B16 melanoma cells in lung tissue sections,[3],non-adherent and appeared apoptotic
same,staining of biotinylated peptide on lung vascular endothelium,[4],detected on the vascular surface epithelium of the lung
IELLQAR [linear heptapeptide],IC50,E-selectin,200 µM
